In publication PMC11407758, “Integrated stress response (ISR) activation and apoptosis through HRI kinase by PG3 and other p53 pathway-restoring cancer therapeutics” (Oncotarget, 2024):

Columns and labels:
[1] = tested on: HFF-1 (human foreskin fibroblast cell with wild-type p53); assay: Cell viability assay (CellTiterGlo), HFF-1 normal cells; assay type: cell-based
Method in brief: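 Cells (6 × 10^3/well) were exposed to a range of compound concentrations or DMSO for 72 h, and viability was read by CellTiterGlo luminescence on an IVIS imager. Percent viability was calculated against each line's DMSO control, and IC50 was taken from sigmoidal dose-response curves.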

[2] = tested on: SW480 cells carrying a p53-responsive luciferase reporter; assay: p53-responsive reporter assay; assay type: cell-based, human; details: 1.11 μM, 6 hour and 15 hour time points
Method in brief: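 Mutant-p53 SW480 human colon cancer cells stably carrying a p53-responsive luciferase reporter, treated with compounds for 6 and 15 h. D-luciferin added to a final 100 μg/mL and luciferase activity imaged by IVIS to gauge restored p53-dependent transcription.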

p21 = assay: Western blot, p21 induction; assay type: cell-based, human; details: five cell lines, 24 h
Method in brief: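 Cells treated with compounds for 24 h, then lysed. 15 μg protein separated by SDS-PAGE and immunoblotted. Bands detected by chemiluminescence.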

[3] = tested on: cleaved caspase-8, -3, cleaved PARP and PUMA in HT29, SW480 and HCT116 p53−/− cells; assay: Western blot, apoptosis markers in PG3-treated cells; assay type: cell-based, human
Experimental: Figure 5 PG3 induces apoptosis in p53-null and p53-mutant cancer cell lines. (A–E) Dose-response and time-course analysis of cleavage of caspase-8, -3, cleaved PARP and PUMA in PG3-treated HT29, SW480 and HCT116 p53^−/− cells by western blot using the indicated antibodies. (F–H) Flowcytometry analysis of cell death. (I) HT29 and HT29-PUMA^−/− and (J) SW480 cells were co-treated with PG3 and pan-caspase inhibitor Z-VAD-fmk for 48 h. (K) HCT116 p53^−/− cell were co-treated with PG3 and Z-VAD-fmk for 24 hours.
After treatment, protein lysates were collected for Western blot analysis. A total of 15 μg of protein was used for SDS-PAGE. After primary and secondary antibody incubations, the signal was detected by a chemiluminescence detection kit, imaged by Syngene (Imgen Technologies). Antibodies for NAG-1 (GDF15) and P53 were from Santa Cruz Biotechnology; for caspase 8, cleaved caspase 8, caspase 9, caspase 3, cleavage PARP, eIF2α, p-eIF2α (Ser51), CHOP, ATF4, DR5, and PUMA were from Cell Signaling Technology. Noxa and p21 were from Calbiochem. Ran was from BD Biosciences.

## CCc1c(C)[nH]c(/C=C2\N=C(c3ccc[nH]3)C=C2OC)c1C [PG3]
[1]; HFF-1 normal cells
  fold less toxic than PG3-Oc: 3.4 fold
[1]; Homo sapiens, HFF-1, 72 h, CellTiterGlo, normal cells, read-out: IC50 values, HFF-l (WT)
  IC50: 1.05 µM
[2]
  p53-responsive reporter activity: do not activate reporter activity
p21
  upregulation of p21: consistently induce upregulation
[3]; HT29, HCT116 p53–/– and SW480
  time at which cleavage of PARP, caspase-8 and -3 occurs: 48 h
[3]; HT29 and SW480 cells, dose-response
  concentration sufficient to induce PUMA and activate cleaved caspase-8 and -3 and cleaved-PARP: 0.5 µM
[3]; HT29 cells
  caspase-9 activation: does not activate caspase-9
[3]; time-course
  time at which PUMA protein is first induced: 24 h
